Data set [1] concerns Peripheral blood mononuclear cells (PBMC). The data set is described as follows: Cytokine Induction in Human Cells (in vitro human blood cell system, IFN and TNF secreted into culture media). The format is cell-based. Further details: key to Lowest Effective Concentration (μM) Tumor Necrosis Factor / Lowest Effective Concentration (μM) Interferon: *: no induction was seen at any of the tested concentrations. As to conditions: 18 to 24 hours, tested 30-0.014 μM. Put shortly:
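Human donor PBMC (2×10^6 cells/mL, RPMI complete) incubated 18–24 h at 37 °C, 5% CO2 with compound, 3-fold dilutions 30–0.014 μM, ≤1% DMSO. IFN-α measured by ELISA, TNF-α by ELISA or IGEN immunoassay in supernatants (pg/mL). Value is lowest concentration inducing each cytokine.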

Where [2] appears, read: Homo sapiens, PBMC, lowest concentration found to induce interferon (α), ELISA, read-out: Lowest Effective Concentration (μM) Interferon.
[3] abbreviates: Homo sapiens, PBMC, lowest concentration found to induce tumor necrosis factor (α), ELISA or IGEN assay, read-out: Lowest Effective Concentration (μM) Tumor Necrosis Factor.
The mark [4] stands for this setting: lowest concentration found to induce interferon (α), ELISA.
[5] abbreviates: lowest concentration found to induce tumor necrosis factor (α), ELISA or IGEN assay.

Structures are written as SMILES. Where two headings read alike, the source gives them in different places.

For `CCOCc1nc2c(N)nc3ccccc3c2n1CCOCC#Cc1ccccc1` [Example 122, 2-(Ethoxymethyl)-1-{2-[(3-phenylprop-2-ynyl)oxy]ethyl}-1H-imidazo[4,5-c]quinolin-4-amine], the melting point (commonly the temperature of the solid-liquid transition) is 110.8 to 111.7 °C. Also, the minimal effective concentration in data set [1] (setting [2]) came out at 0.01 µM. Further, the minimal effective concentration in data set [1] (setting [3]) was determined as 0.12 µM.
The compound `CCCCc1nc2c(N)nc3ccccc3c2n1CCOCC#Cc1ccccc1` [Example 123, 2-Butyl-1-{2-[(3-phenylprop-2-ynyl)oxy]ethyl}-1H-imidazo[4,5-c]quinolin-4-amine] displayed a melting point of 133 to 140 °C. Moreover, the minimal effective concentration in data set [1] (setting [2]) was found to be 0.12 µM. Besides, in data set [1] (setting [3]), the minimal effective concentration was determined as 10 µM.
The corresponding values for `CCCCc1nc2c(N)nc3ccccc3c2n1CCOCCCc1ccccc1` [Example 124, 2-Butyl-1-[2-(3-phenylpropoxy)ethyl]-1H-imidazo[4,5-c]quinolin-4-amine] are 80.8 to 81.3 °C, 1.11 µM and 10 µM.
The corresponding values for `CCOCc1nc2c(N)nc3ccccc3c2n1CCOCc1ccccc1` [Example 125, 1-[2-(Benzyloxy)ethyl]-2-(ethoxymethyl)-1H-imidazo[4,5-c]quinolin-4-amine] are 144.5 to 146 °C, 0.01 µM and 0.37 µM.
The corresponding values for `CCCCc1nc2c(N)nc3ccccc3c2n1CCOCc1ccccc1` [Example 126, 1-[2-(Benzyloxy)ethyl]-2-butyl-1H-imidazo[4,5-c]quinolin-4-amine] are 133 to 135 °C, 0.04 µM and 0.04 µM.
`Cc1nc2c(N)nc3ccccc3c2n1CCOCc1ccccc1` [Example 127, 1-[2-(Benzyloxy)ethyl]-2-methyl-1H-imidazo[4,5-c]quinolin-4-amine] gave a melting point of 159 to 160 °C. In addition, the minimal effective concentration in data set [1] (setting [2]) came to 0.01 µM. The minimal effective concentration in data set [1] (setting [3]) worked out at 0.12 µM.
`CCCCCCCCc1nc2c(N)nc3ccccc3c2n1CCOCc1ccccc1` [Example 128, 1-[2-(Benzyloxy)ethyl]-2-octyl-1H-imidazo[4,5-c]quinolin-4-amine] had a melting point of 110 to 111 °C. Besides, the “Lowest Effective Concentration (μM) Interferon” value in data set [1] (setting [4]) was “*”. In addition, the “Lowest Effective Concentration (μM) Tumor Necrosis Factor” value in data set [1] (setting [5]) is recorded as “*”.
Regarding `COCCc1nc2c(N)nc3ccccc3c2n1CCOc1ccccc1` [Example 129, 2-(2-Methoxyethyl)-1-(2-phenoxyethyl)-1H-imidazo[4,5-c]quinolin-4-amine], the melting point lay in the range of 171 to 174 °C. In data set [1] (setting [2]), the minimal effective concentration was found to be 0.01 µM. In data set [1] (setting [3]), the minimal effective concentration came to 0.04 µM.
The corresponding values for `CC(C)Cc1nc2c(N)nc3ccccc3c2n1CCOc1ccccc1` [Example 130, 2-Isobutyl-1-(2-phenoxyethyl)-1H-imidazo[4,5-c]quinolin-4-amine] are 176.6 to 177.8 °C, 3.33 µM and 3.33 µM.
Regarding `CC(C)c1nc2c(N)nc3ccccc3c2n1CCOc1ccccc1` [Example 131, 2-Isopropyl-1-(2-phenoxyethyl)-1H-imidazo[4,5-c]quinolin-4-amine], the melting point was in the range of 229 to 231 °C. For the same compound, the minimal effective concentration in data set [1] (setting [3]) is 10 µM. Also, in data set [1] (setting [4]), the “Lowest Effective Concentration (μM) Interferon” value was “*”.
`CCCCc1nc2c(N)nc3ccccc3c2n1CCOc1ccccc1` [Example 132, 2-Butyl-1-(2-phenoxyethyl)-1H-imidazo[4,5-c]quinolin-4-amine] had a melting point of 168.3 to 169.5 °C. In addition, the minimal effective concentration in data set [1] (setting [2]) was determined as 0.01 µM. Besides, the minimal effective concentration in data set [1] (setting [3]) turned out to be 3.33 µM.
Take `Nc1nc2ccccc2c2c1nc(COc1ccccc1)n2CCOc1ccccc1` [Example 133, 1-(2-Phenoxyethyl)-2-(phenoxymethyl)-1H-imidazo[4,5-c]quinolin-4-amine]: the melting point was in the range of 168.5 to 170 °C. For the same compound, the minimal effective concentration in data set [1] (setting [2]) was determined as 3.33 µM. Besides, the “Lowest Effective Concentration (μM) Tumor Necrosis Factor” value in data set [1] (setting [5]) is reported as “*”.
Compound `COc1ccc(Cc2nc3c(N)nc4ccccc4c3n2CCOc2ccccc2)cc1` [Example 134, 2-(4-Methoxybenzyl)-1-(2-phenoxyethyl)-1H-imidazo[4,5-c]quinolin-4-amine] registered a melting point of 201 to 203.6 °C. Moreover, the “Lowest Effective Concentration (μM) Interferon” value in data set [1] (setting [4]) is recorded as “*”. Besides, the “Lowest Effective Concentration (μM) Tumor Necrosis Factor” value in data set [1] (setting [5]) was “*”.
In the case of `Nc1nc2ccccc2c2c1nc(C1CCCC1)n2CCOc1ccccc1` [Example 135, 2-Cyclopentyl-1-(2-phenoxyethyl)-1H-imidazo[4,5-c]quinolin-4-amine], the melting point was in the range of 216 to 217.9 °C. Further, the “Lowest Effective Concentration (μM) Interferon” value in data set [1] (setting [4]) is given as “*”. In addition, the “Lowest Effective Concentration (μM) Tumor Necrosis Factor” value in data set [1] (setting [5]) is listed as “*”.
As for `Nc1nc2ccccc2c2c1nc(CCC1CCCC1)n2CCOc1ccccc1` [Example 138, 2-(2-Cyclopentylethyl)-1-(2-phenoxyethyl)-1H-imidazo[4,5-c]quinolin-4-amine], the melting point was 165 °C. Moreover, the minimal effective concentration in data set [1] (setting [2]) turned out to be 1.11 µM. Besides, the “Lowest Effective Concentration (μM) Tumor Necrosis Factor” value in data set [1] (setting [5]) is given as “*”.
In turn, `Nc1nc2ccccc2c2c1nc(C1CCOC1)n2CCOc1ccccc1` (stereo not drawn) [Example 139, 1-(2-Phenoxyethyl)-2-tetrahydrofuran-3-yl-1H-imidazo[4,5-c]quinolin-4-amine] displayed a melting point of 235.9 to 236.3 °C. In addition, in data set [1] (setting [4]), the “Lowest Effective Concentration (μM) Interferon” value is recorded as “*”. Besides, in data set [1] (setting [5]), the “Lowest Effective Concentration (μM) Tumor Necrosis Factor” value is given as “*”.
`Nc1nc2ccccc2c2c1nc(-c1ccccc1)n2CCOc1ccccc1` [Example 140, 1-(2-Phenoxyethyl)-2-phenyl-1H-imidazo[4,5-c]quinolin-4-amine] returned a melting point of 182.5 to 184.6 °C. In data set [1] (setting [4]), the “Lowest Effective Concentration (μM) Interferon” value was “*”. Also, the “Lowest Effective Concentration (μM) Tumor Necrosis Factor” value in data set [1] (setting [5]) is recorded as “*”.
For the compound `CCC(COCc1ccc(C#N)cc1)n1cnc2c(N)nc3ccccc3c21` (stereo not drawn) [Example 141, 4-{[2-(4-Amino-1H-imidazo[4,5-c]quinolin-1-yl)butoxy]methyl}benzonitrile], the melting point lay within 160 to 161 °C. Further, in data set [1] (lowest concentration found to induce interferon (α), ELISA, read-out: Lowest Effective Concentration (μM) Interferon), the minimal effective concentration is on record as 0.12 µM. Moreover, in data set [1] (lowest concentration found to induce tumor necrosis factor (α), ELISA or IGEN assay, read-out: Lowest Effective Concentration (μM) Tumor Necrosis Factor), the minimal effective concentration amounted to 0.12 µM.
For `Cc1nc2c(N)nc3ccccc3c2n1CCCOCC#Cc1ccccc1` [Example 147, 2-Methyl-1-{3-[(3-phenylprop-2-ynyl)oxy]propyl}-H-imidazo[4,5-c]quinolin-4-amine], the melting point fell in the range of 160 to 161.6 °C. Also, in data set [1] (setting [2]), the minimal effective concentration turned out to be 0.37 µM. Besides, in data set [1] (setting [3]), the minimal effective concentration came out at 0.37 µM.
For `Cc1nc2c(N)nc3ccccc3c2n1CCCOCCCc1ccccc1` [Example 148, 2-Methyl-1-[3-(3-phenylpropoxy)propyl]-1H-imidazo[4,5-c]quinolin-4-amine], the melting point is 145 to 146.1 °C. Besides, the minimal effective concentration in data set [1] (setting [2]) amounted to 1.11 µM. For the same compound, the minimal effective concentration in data set [1] (setting [3]) was 1.11 µM.
For `Cc1nc2c(N)nc3ccccc3c2n1CCCCOCC#Cc1ccccc1` [Example 149, 2-Methyl-1-{4-[(3-phenylprop-2-ynyl)oxy]butyl}-1H-imidazo[4,5-c]quinolin-4-amine], the melting point lay within 109.2 to 110 °C. The minimal effective concentration in data set [1] (setting [2]) turned out to be 0.041 µM. Also, in data set [1] (setting [3]), the minimal effective concentration is 0.37 µM.
`Cc1nc2c(N)nc3ccccc3c2n1CCCCOCCCc1ccccc1` [Example 150, 2-Methyl-1 [4-(3-phenylpropoxy)butyl]-1H-imidazo[4,5-c]quinolin-4-amine] showed a melting point of 105.1 to 106 °C. For the same compound, the minimal effective concentration in data set [1] (setting [2]) stood at 0.37 µM. Moreover, the minimal effective concentration in data set [1] (setting [3]) is 1.11 µM.

For the origin of these results see patent US6989389B2, “Aryl ether substituted imidazoquinolines” (3M Innovative Properties Co., priority 2000, dated 2006).
